These results are taken from ChEMBL document CHEMBL5108032, “Innovation Experiences from Africa-Led Drug Discovery at the Holistic Drug Discovery and Development (H3D) Centre” (ACS Med Chem Lett, 2022).

This test has as its system Mycobacterium tuberculosis. Briefly: Antimycobacterial activity against Mycobacterium tuberculosis H37Rv assessed as inhibition of visible growth incubated for 7 days. Type of test: functional. To be noted: 168 h, time 7 day.

SMILES strings stand for the structures. Converted amounts (≈) assume the structure as drawn.

One may read the MIC as the lowest concentration that inhibits growth of the organism.

On to `Cc1nnc(-c2noc3c(F)c4c(cc23)CC2(C(=O)NC(=O)NC2=O)[C@H]2[C@H](C)O[C@H](C)CN42)o1`, for which the MIC was 1.7 µM (≈ 0.8 µg/mL).
